{
  "source": "patent US5013722A",
  "about": "“Cholecystokinin analogs for controlling appetite” (Hoffmann-LaRoche Inc., priority 1989, dated 1991)",
  "key": {"[1]": {"system": "Male Sprague-Dawley (CD) rats, food intake", "test": "Two-meal feeding assay, intraperitoneal administration", "format": "in vivo, rat", "protocol": "(§1) Male Sprague-Dawley (CD) rats weighing 180-200 grams (Charles River Breeding Laboratories) were acclimated to a 12 h light/dark cycle (6 a.m. to 6 p.m.) in a room kept at 22° C. They were subsequently fasted for two days, weighed, placed in individual cages, and a four-day period of meal training was begun. During this time the rats were given ground laboratory chow (Purina Lab Chow) in jars for one hour from 9:00 a.m. until 10:00 a.m., the jars were removed from 10:00 a.m. to 12:00 p.m., and placed back in the cages from 12:00 until 1:00 p.m. Under this `1-2-1` meal feeding regime most rats learn to eat approximately as much Per day during the two hours they have access to food as rats which have food ad libitum over the entire 24-hour day. On the fourth day, the rats were weighed again, and any which lost more than five grams body weight were excluded from the test. The animals were then distributed into experimental (n=5 to 6) and control groups (n=6-12). but not matched for body weight.\nPeptides of the invention were suspended either in saline. if soluble, or in 1% gum arabic, if insoluble, at concentrations of 0 to 320 μg/ml/kg body weight and were administered intraperitonerally 15 min before the first meal on day 5 of meal feeding. The rats were then given their meals as they had been during the previous four days, and the food cups were weighed both before and after each meal to determine food consumption. Food intake was expressed as a mean and standard error of the mean in grams consumed or as a percent of control values for the various groups. The treated groups were compared to the control groups by t-test analysis. […]"}, "[2]": {"system": "Male rats, food intake", "test": "Two-meal feeding assay, intranasal administration", "format": "in vivo, rat", "details": "for Food Intake 1st meal (%) / Food Intake 2nd meal (%): saline = 100", "protocol": "as §1\nMale rats were meal trained as described in Example 9. The peptide of Example 2 was dissolved in saline and was administered to the rats intranasally. CCK-8, dissolved in saline was used as a control."}, "[3]": {"biological_target": "T1, Rat kidney metalloendopeptidase (Rattus norvegicus, UniProt P07861)", "T1 construct": "from tissue; host or cells: rat kidney", "T1 sequence (P07861 1-750)": "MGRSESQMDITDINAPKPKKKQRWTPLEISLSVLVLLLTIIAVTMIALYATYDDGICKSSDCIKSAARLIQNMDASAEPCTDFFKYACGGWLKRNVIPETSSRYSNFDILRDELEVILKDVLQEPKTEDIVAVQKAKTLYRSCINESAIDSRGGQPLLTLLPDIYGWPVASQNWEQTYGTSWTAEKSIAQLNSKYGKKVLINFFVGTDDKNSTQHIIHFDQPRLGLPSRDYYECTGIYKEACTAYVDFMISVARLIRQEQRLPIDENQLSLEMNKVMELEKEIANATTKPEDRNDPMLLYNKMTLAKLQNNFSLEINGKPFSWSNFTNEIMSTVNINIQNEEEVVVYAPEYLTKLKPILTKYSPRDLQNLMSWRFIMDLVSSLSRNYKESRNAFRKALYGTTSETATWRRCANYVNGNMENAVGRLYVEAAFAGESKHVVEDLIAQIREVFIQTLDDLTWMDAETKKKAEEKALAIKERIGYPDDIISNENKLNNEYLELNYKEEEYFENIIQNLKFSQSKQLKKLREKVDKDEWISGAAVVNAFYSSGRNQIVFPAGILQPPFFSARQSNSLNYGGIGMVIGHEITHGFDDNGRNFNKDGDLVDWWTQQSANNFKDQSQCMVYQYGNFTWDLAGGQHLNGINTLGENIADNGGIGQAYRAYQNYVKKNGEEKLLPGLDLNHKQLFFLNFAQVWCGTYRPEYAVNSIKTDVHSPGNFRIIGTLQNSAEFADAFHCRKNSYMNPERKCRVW", "test": "Degradation by rat kidney metalloendopeptidase (HPLC)", "format": "in vitro ADME", "details": "for % Degradation by Height: 37° C., pH 7.6", "protocol": "Rat kidney metalloendopeptidase (0.01 μg) and 5 nmol of peptide were incubated in 2 μmol tris-HCl buffer (pH 7.6) and at 37° C. for varying periods of time. The degradation of the peptide was monitored by analytical HPLC on a 5 micron Adsorbosphere-ODS column with a 0-50% CH3 CN gradient in 0.1N potassium phosphate, pH 3.0, with UV detection at 210 nm. Rates are based on presumed production of Asp-Tyr(SO3 H)-Met-Gly for CCK-8 and the presumed production of Ac-Tyr(SO3 H)-Met-Gly for Example 2 and 3."}, "[4]": {"biological_target": "T2, receptors in bovine striatum (3H-CCK-8-(SO3 H) binding, central receptor) (Bos taurus, UniProt P79266)", "T2 construct": "receptors in homogenized preparations of rat pancreatic cells and bovine striata; from tissue; host or cells: bovine striatum homogenate (48,000 x g pellet)", "T2 sequence (P79266 1-454)": "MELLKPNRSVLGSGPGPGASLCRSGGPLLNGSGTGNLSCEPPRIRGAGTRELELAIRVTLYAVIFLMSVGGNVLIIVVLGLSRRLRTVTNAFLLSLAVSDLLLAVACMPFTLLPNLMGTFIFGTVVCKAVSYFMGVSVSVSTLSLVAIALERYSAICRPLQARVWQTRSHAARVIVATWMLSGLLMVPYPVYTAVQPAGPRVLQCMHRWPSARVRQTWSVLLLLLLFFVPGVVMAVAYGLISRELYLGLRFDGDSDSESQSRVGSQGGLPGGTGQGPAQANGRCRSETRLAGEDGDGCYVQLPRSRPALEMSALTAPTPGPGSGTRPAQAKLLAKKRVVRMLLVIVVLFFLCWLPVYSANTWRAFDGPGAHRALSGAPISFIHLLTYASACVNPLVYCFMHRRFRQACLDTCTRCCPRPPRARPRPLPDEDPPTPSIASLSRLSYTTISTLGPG", "test": "In vitro receptor binding assay, bovine striatum homogenate, 3H-CCK-8-(SO3H) radioligand", "details": "0.15 nM radioligand, 30 min, 25° C.; read-out: Bovine Striatum IC50 (inhibition of specific 3H-CCK-8-(SO3H) binding)", "experimental": "Frozen bovine striatum (approx. 5 g) and fresh rat pancreas (approx. 5 g) cleaned of fat and extraneous tissue were homogenized in HEPES buffer #1 (10 mM HEPES+130 mM NaCl+5 mM MgCl2. pH 7.4) using 35 parts buffer per 1 part tissue on a wet weight/volume basis (approx. 175 ml). The tissue was homogenized 2 x for approx. 15 sec. at 0° C. using a Polytron homogenizer at a setting of 6. The tissue was isolated by centrifugation at 48,000 x g for 10 min. at 0° C. The resulting tissue pellet was resuspended in HEPES buffer #2 (10 mM HEPES+130 mM NaCl+5 mM MgCl2 +1 mg/L phenylmethanesulfonyl fluoride (PMSF)+200 mg/L Bacitracin): 1 part striatal tissue (original wet weight) per 80 parts buffer and 1 part pancreas tissue (original wet weight) per 70 parts buffer.\nIncubation was initiated by combining various concentrations of native CCK-8 or peptides of formula I, II and III with ^3 H-CCK-8-(SO3 H) (final conc.=0.15 nM) and tissue homogenate (striatum 0.26 mg protein in 2 ml final volume; pancreas 0.165 mg protein in 1 ml final volume). Samples were incubated for 30 min. at 25° C. and the incubation terminated by pouring the mixture onto a pre-wet Whatman GF/B filter on a Sandbeck Vacuum Filtration Manifold. The incubation tubes were washed with 2×3 ml of ice-cold HEPES Buffer #2 and the wash filtered through the GF/B filter. The filter was air dried for 10 min. and then placed in a scintillation vial with 12 ml of Beckman HP/b Ready-Solv scintillation cocktail. The vials were shaken for 2 hours and then counted using a Beckman Model 7800 liquid scintillation spectrometer. Non-specific binding was determined in the presence of 1 micromole native CCK-8 and subtracted from all samples to determine specific binding. The concentration of ^3 peptide necessary to inhibit 50% of total specific H-CCK-8-(SO3 H) binding (IC50 value) was determined by log-probit analysis."}},
  "note": "“Also recorded” adds a separate entry of the source. Where a SMILES comes first, the peptide text is derived from it. [ ]: non-standard residue; d: D form. Thr(SO3H) = C[C@@H](OS(=O)(=O)O)[C@H](N)C(=O)O; sY = N[C@@H](Cc1ccc(OS(=O)(=O)O)cc1)C(=O)O; NMeF = CN[C@@H](Cc1ccccc1)C(=O)O",
  "data": [
    {"smiles": "CSCC[C@H](NC(=O)[C@H](Cc1ccc(OS(=O)(=O)O)cc1)NC(C)=O)C(=O)NCC(=O)N[C@@H](Cc1c[nH]c2ccccc12)C(=O)N[C@@H](CCSC)C(=O)N[C@H](C(=O)N(C)[C@@H](Cc1ccccc1)C(N)=O)[C@@H](C)OS(=O)(=O)O", "note": "[Example 2, Ac-Tyr(SO3 H)-Met-Gly-Trp-Met-Thr(SO3 H)-N-methyl-Phe-NH2] (Ac-[sY]MGWM[Thr(SO3H)][NMeF]-NH2)", "values": [
      {"measurement": "Food Intake 1st Meal", "setting": "[1]; 32 microgm/Kg i.p., 15 min before first meal, mean ± SEM", "result": "8 ± 1 % of Control"},
      {"measurement": "Food Intake 2nd Meal", "setting": "[1]; 32 microgm/Kg i.p., mean ± SEM", "result": "26 ± 4 % of Control"},
      {"measurement": "Food intake suppression over dosage range compared with CCK-8 (FIG. 1)", "setting": "[1]; first meal, i.p., dosage range of FIG. 1", "result": "effectively reduced food intake during the first meal at a much lower dosage range than did CCK-8; also recorded: effectively suppresses food intake in rats at a lower dosage than does CCK-8"},
      {"measurement": "Food Intake 1st meal Grams consumed", "setting": "[2]; 3 μg/kg intranasal", "result": "7.5 ± 0.8", "unit": "Grams"},
      {"measurement": "Food Intake 2nd meal Grams consumed", "setting": "[2]; 3 μg/kg intranasal", "result": "6.1 ± 0.3", "unit": "Grams"},
      {"measurement": "Food Intake 1st meal (%)", "setting": "[2]; 3 μg/kg intranasal", "result": 102, "unit": "%"},
      {"measurement": "Food Intake 2nd meal (%)", "setting": "[2]; 3 μg/kg intranasal", "result": 109, "unit": "%"},
      {"measurement": "Food Intake 1st meal Grams consumed", "setting": "[2]; 10 μg/kg intranasal", "result": "5.5 ± 0.6", "unit": "Grams"},
      {"measurement": "Food Intake 2nd meal Grams consumed", "setting": "[2]; 10 μg/kg intranasal", "result": "6.3 ± 0.4", "unit": "Grams"},
      {"measurement": "Food Intake 1st meal (%)", "setting": "[2]; 10 μg/kg intranasal", "result": 74, "unit": "%"},
      {"measurement": "Food Intake 2nd meal (%)", "setting": "[2]; 10 μg/kg intranasal", "result": 112, "unit": "%"},
      {"measurement": "Food Intake 1st meal Grams consumed", "setting": "[2]; 30 μg/kg intranasal", "result": "5.8 ± 0.7", "unit": "Grams"},
      {"measurement": "Food Intake 2nd meal Grams consumed", "setting": "[2]; 30 μg/kg intranasal", "result": "4.3 ± 0.6", "unit": "Grams"},
      {"measurement": "Food Intake 1st meal (%)", "setting": "[2]; 30 μg/kg intranasal", "result": 78, "unit": "%"},
      {"measurement": "Food Intake 2nd meal (%)", "setting": "[2]; 30 μg/kg intranasal", "result": 76, "unit": "%"},
      {"measurement": "Food Intake 1st meal Grams consumed", "setting": "[2]; 100 μg/kg intranasal", "result": "3.4 ± 0.4", "unit": "Grams"},
      {"measurement": "Food Intake 2nd meal Grams consumed", "setting": "[2]; 100 μg/kg intranasal", "result": "4.6 ± 0.5", "unit": "Grams"},
      {"measurement": "Food Intake 1st meal (%)", "setting": "[2]; 100 μg/kg intranasal", "result": 46, "unit": "%"},
      {"measurement": "Food Intake 2nd meal (%)", "setting": "[2]; 100 μg/kg intranasal", "result": 82, "unit": "%"},
      {"measurement": "% Degradation by Height", "setting": "[3]; incubation 0 min", "result": 0, "unit": "%"},
      {"measurement": "% Degradation by Height", "setting": "[3]; incubation 60 min", "result": 19.4, "unit": "%"},
      {"measurement": "% Degradation by Height", "setting": "[3]; incubation 120 min", "result": 30.3, "unit": "%"},
      {"measurement": "No. of Peaks (degradation products)", "setting": "[3]; incubation 240 min", "result": 2},
      {"measurement": "% Degradation by Height", "setting": "[3]; incubation 240 min", "result": 56.4, "unit": "%"},
      {"measurement": "IC50", "setting": "[4]", "result": "0.1 to 0.5", "unit": "µM"}
    ]}
  ]
}
